Assay results published in patent publication US20240139220A1, “TREATMENT OF HPV INFECTION” (priority 2022, published 2024).
Converted amounts (≈) assume the structure as drawn. Read-outs that look alike come from different tables or passages of the source.

Columns and labels:
[1] = Hygroscicity by Dynamic Vapor Sorption (DVS) at 25° C.; assay type: physicochemical
Method: Hygroscopicity was investigated by DVS at 25° C., using the following method: […]

[2] = Approximate solubility in solvents at 25° C. and 50° C. by visual observation; assay type: physicochemical; conditions: thermodynamic from solid, read-out: Solubility
Method: The maximum volume of each solvent added was 1 mL. Approximate solubility was determined by visual observation.
Maximum volume of each solvent added was 1 mL. Approximate solubility was determined by visual observation.

[3] = cycle of 40-0-95-0-45% relative humidity

## CCOC(=O)[C@H](C)N[P@](=O)(COCCn1cnc2c(OC)nc(N)nc21)OCc1ccccc1 (single isomer, unassigned) [Compound III, monofumarate]
[1]; [3]
  Fold increase of retained water content versus Compound II: 40 fold
  XRPD pattern after humidity cycle: lose one of the peaks
[1]; exposed to a cycle of 40-0-95-0-45% relative humidity
  Water content retained: about 10%

## CCOC(=O)[C@H](C)NP(=O)(COCCn1cnc2c(OC)nc(N)nc21)OCc1ccccc1 (stereo partly drawn) [Compound I, ethyl(((2-(2-amino-6-methoxy-9H-purin-9-yl)ethoxy)methylxbenzyloxy)-phosphoryl)-L-alaninate]
[2]; organic solvent or mixture, Acetone, 25° C.
  Solubility: > 100 mg/mL
[2]; organic solvent or mixture, Acetone, 50° C.
  Solubility: > 500 mg/mL
[2]; organic solvent or mixture, Acetonitrile (ACN), 25° C.
  Solubility: > 100 mg/mL
[2]; organic solvent or mixture, Acetonitrile (ACN), 50° C.
  Solubility: > 500 mg/mL
[2]; organic solvent or mixture, Dichloromethane (DCM), 25° C.
  Solubility: > 100 mg/mL
[2]; organic solvent or mixture, Dichloromethane (DCM), 50° C.
  Solubility: > 500 mg/mL
[2]; organic solvent or mixture, Ethanol (EtOH), 25° C.
  Solubility: > 100 mg/mL
[2]; organic solvent or mixture, Ethanol (EtOH), 50° C.
  Solubility: > 500 mg/mL
[2]; organic solvent or mixture, Ethyl acetate (EA), 25° C.
  Solubility: > 100 mg/mL
[2]; organic solvent or mixture, Ethyl acetate (EA), 50° C.
  Solubility: > 500 mg/mL
[2]; organic solvent or mixture, Heptanes, 25° C.
  Solubility: < 2 mg/mL
[2]; organic solvent or mixture, Heptanes, 50° C.
  Solubility: < 10 mg/mL
[2]; organic solvent or mixture, Isopropanol (IPA), 25° C.
  Solubility: > 100 mg/mL
[2]; organic solvent or mixture, Isopropanol (IPA), 50° C.
  Solubility: > 500 mg/mL
[2]; organic solvent or mixture, Isopropyl acetate (IPAc), 25° C.
  Solubility: > 100 mg/mL
[2]; organic solvent or mixture, Isopropyl acetate (IPAc), 50° C.
  Solubility: > 500 mg/mL
[2]; organic solvent or mixture, Methanol (MeOH), 25° C.
  Solubility: > 100 mg/mL
[2]; organic solvent or mixture, Methanol (MeOH), 50° C.
  Solubility: > 500 mg/mL
[2]; organic solvent or mixture, Methyl ethyl ketone (MEK), 25° C.
  Solubility: > 100 mg/mL
[2]; organic solvent or mixture, Methyl ethyl ketone (MEK), 50° C.
  Solubility: > 500 mg/mL
[2]; organic solvent or mixture, Methyl t-butyl ether (MTBE), 25° C.
  Solubility: < 2 mg/mL
[2]; organic solvent or mixture, Methyl t-butyl ether (MTBE), 50° C.
  Solubility: < 10 mg/mL
[2]; organic solvent or mixture, Tetrahydrofuran (THF), 25° C.
  Solubility: > 100 mg/mL
[2]; organic solvent or mixture, Tetrahydrofuran (THF), 50° C.
  Solubility: 167 to 250 mg/mL (≈ 339 to 508 mM)
[2]; Water, 25° C.
  Solubility: 20 to 25 mg/mL (≈ 40.6 to 50.8 mM)
[2]; Water, 50° C.
  Solubility: 25 to 27 mg/mL (≈ 50.8 to 54.8 mM)
